What was measured:
[1] = molecular target: T1, EP4 (Homo sapiens, UniProt P35408); assay: EP4 cAMP activity study; format: cell-based
Procedure: (§1) Data from running binding and activity studies on the compounds of the invention were carried out as described in U.S. Pat. No. 7,427,685, the contents of which are incorporated herein by reference.

[2] = molecular target: T2, EP2 (Homo sapiens, UniProt P43116); assay: EP2 binding study; settings: read-out: EP2 Data (EC50 in nM) Ki
Procedure: as §1

[3] = molecular target: T1, EP4; assay: EP4 binding study; settings: read-out: EP4 data (EC50 in nM) KI
Procedure: as §1

[4] = molecular target: T2, EP2; assay: EP2 cAMP activity study; format: cell-based
Procedure: as §1

[5] = molecular target: T3, hEP3A (Homo sapiens, UniProt P43115); assay: Other receptors activity, hEP3A; format: cell-based
T3 sequence (P43115 1-390): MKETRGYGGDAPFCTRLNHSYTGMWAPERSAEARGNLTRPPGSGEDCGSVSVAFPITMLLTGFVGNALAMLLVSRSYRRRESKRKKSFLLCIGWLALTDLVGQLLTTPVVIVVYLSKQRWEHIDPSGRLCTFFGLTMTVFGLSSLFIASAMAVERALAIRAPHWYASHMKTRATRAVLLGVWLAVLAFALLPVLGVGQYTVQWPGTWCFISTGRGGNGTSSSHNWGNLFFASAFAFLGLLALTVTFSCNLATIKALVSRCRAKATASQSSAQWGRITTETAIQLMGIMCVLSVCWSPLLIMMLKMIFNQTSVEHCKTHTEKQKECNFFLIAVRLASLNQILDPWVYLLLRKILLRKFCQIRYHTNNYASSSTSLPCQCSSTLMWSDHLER
Procedure: as §1

T1 sequence (P35408 whole entry): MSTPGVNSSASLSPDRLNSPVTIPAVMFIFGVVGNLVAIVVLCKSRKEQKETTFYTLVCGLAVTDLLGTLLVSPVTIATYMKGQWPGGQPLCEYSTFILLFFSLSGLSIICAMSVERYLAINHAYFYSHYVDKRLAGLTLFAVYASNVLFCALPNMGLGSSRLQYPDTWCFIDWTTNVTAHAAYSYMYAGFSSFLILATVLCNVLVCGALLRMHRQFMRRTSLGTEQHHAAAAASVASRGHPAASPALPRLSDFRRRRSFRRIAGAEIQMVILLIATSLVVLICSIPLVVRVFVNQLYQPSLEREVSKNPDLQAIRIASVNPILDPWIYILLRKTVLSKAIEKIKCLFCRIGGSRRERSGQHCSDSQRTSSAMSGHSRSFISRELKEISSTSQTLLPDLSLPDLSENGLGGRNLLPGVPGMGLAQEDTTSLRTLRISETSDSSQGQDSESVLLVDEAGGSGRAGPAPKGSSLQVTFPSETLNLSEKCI
T2 sequence (P43116 whole entry): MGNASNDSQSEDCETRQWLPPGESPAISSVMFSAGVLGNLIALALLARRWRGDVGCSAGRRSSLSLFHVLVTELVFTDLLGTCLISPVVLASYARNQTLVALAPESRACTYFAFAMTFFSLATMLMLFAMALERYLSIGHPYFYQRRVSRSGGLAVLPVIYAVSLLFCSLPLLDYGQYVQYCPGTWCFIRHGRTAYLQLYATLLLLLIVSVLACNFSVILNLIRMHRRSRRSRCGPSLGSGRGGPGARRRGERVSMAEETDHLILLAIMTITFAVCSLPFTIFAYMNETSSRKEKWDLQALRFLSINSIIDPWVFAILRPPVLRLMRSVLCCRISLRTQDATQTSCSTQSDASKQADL

Structure (SMILES) | EC50 [1] | Ki [2] | Ki [3] | EC50 [4] | EC50 [5]
COc1ccc(-c2cccc(C(F)(F)F)c2)c2c1C(=O)C(Cc1ccc(C(=O)O)cc1)C2 (stereo not drawn) [Example 20, 4-((7-Methoxy-1-oxo-4-(3-(trifluoromethyl)phenyl)-2,3-dihydro-1H-inden-2-yl)methyl)benzoic acid] | > 10000 nM | 7360 nM | 954 nM | – | –
O=C(O)c1ccc(CC2Cc3c(cccc3-c3ccccc3)C2=O)cc1 (stereo not drawn) [Example 13, 4-((1-Oxo-4-phenyl-2,3-dihydro-1H-inden-2-yl)methyl)benzoic acid] | 2440 nM | 1140 nM | 1010 nM | – | –
O=C(O)c1ccc(CC2Cc3c(cccc3-c3cccc(Cl)c3)C2=O)cc1 (stereo not drawn) [Example 3, 4-((4-(3-Chlorophenyl)-1-oxo-2,3-dihydro-1H-inden-2-yl)methyl)benzoic acid] | 1070 nM | 130 nM | 954 nM | 26 nM | –
COc1cccc(-c2cccc3c2CC(Cc2ccc(C(=O)O)cc2)C3=O)c1 (stereo not drawn) [Example 11, 4-((4-(3-Methoxyphenyl)-1-oxo-2,3-dihydro-1H-inden-2-yl)methyl)benzoic acid] | 186 nM | 333 nM | 525 nM | – | –
O=C(O)c1ccc(CC2Cc3c(cccc3-c3ccc(Cl)c(C(F)(F)F)c3)C2=O)cc1 (stereo not drawn) [Example 10, 4-((4-(4-Chloro-3-(trifluoromethyl)phenyl)-1-oxo-2,3-dihydro-1H-inden-2-yl)methyl)benzoic acid] | 1090 nM | 3 nM | 1350 nM | 1 nM | –
O=C(O)c1cc(CC2Cc3c(cccc3-c3cccc(C(F)(F)F)c3)C2=O)cs1 (stereo not drawn) [Example 17, 4-((1-Oxo-4-(3-(trifluoromethyl)phenyl)-2,3-dihydro-1H-inden-2-yl)methyl)thiophene-2-carboxylic acid] | > 10000 nM | 674 nM | 7 nM | 695 nM | –
O=C(O)c1ccc(CC2Cc3c(cccc3-c3cccc(C(F)(F)F)c3)C2=O)cc1 (stereo not drawn) [Example 2, 4-((1-Oxo-4-(3-(trifluoromethyl)phenyl)-2,3-dihydro-1H-inden-2-yl)methyl)benzoic acid] | 108 nM | 56 nM | 18 nM | 1 nM | –
O=C(O)c1cccc(CC2Cc3c(cccc3-c3cccc(C(F)(F)F)c3)C2=O)c1 (stereo not drawn) [Example 19, 3-((1-Oxo-4-(3-(trifluoromethyl)phenyl)-2,3-dihydro-1H-inden-2-yl)methyl)benzoic acid] | 1470 nM | 6760 nM | 2740 nM | – | –
O=C(O)c1ccc(CC2Cc3c(cccc3-c3cc(C(F)(F)F)cc(C(F)(F)F)c3)C2=O)cc1 (stereo not drawn) [Example 9, 4-((4-(3,5-Bis(trifluoromethyl)phenyl)-1-oxo-2,3-dihydro-1H-inden-2-yl)methyl)benzoic acid] | 1630 nM | 9 nM | 1780 nM | 5 nM | –
COc1cc(OC)cc(-c2cccc3c2CC(Cc2ccc(C(=O)O)cc2)C3=O)c1 (stereo not drawn) [Example 21] | 874 nM | 241 nM | 486 nM | 79 nM | –
O=C(O)c1ccc(CC2CCc3c(cccc3-c3cccc(C(F)(F)F)c3)C2=O)cc1 (stereo not drawn) [Example 1, 4-((1-Oxo-5-(3-(trifluoromethyl)phenyl)-1,2,3,4-tetrahydronaphthalen-2-yl)methyl)benzoic acid] | 196 nM | 70 nM | 149 nM | 6 nM | –
O=C(O)c1ccc(CC2Cc3c(cccc3-c3ccccc3C(F)(F)F)C2=O)cc1 (stereo not drawn) [Example 7, 4-((1-Oxo-4-(2-(trifluoromethyl)phenyl)-2,3-dihydro-1H-inden-2-yl)methyl)benzoic acid] | > 10000 nM | > 10000 nM | 7090 nM | – | –
O=C(O)c1ccc(CC2Cc3c(cccc3-c3cccc4ccccc34)C2=O)cc1 (stereo not drawn) [Example 4, 4-((4-(Naphthalen-1-yl)-1-oxo-2,3-dihydro-1H-inden-2-yl)methyl)benzoic acid] | 1240 nM | 2080 nM | 1280 nM | – | –
O=C(O)c1ccc(CC2Cc3c(cccc3-c3cccc(C(F)(F)F)c3)C2=O)s1 (stereo not drawn) [Example 15, 5-((1-Oxo-4-(3-(trifluoromethyl)phenyl)-2,3-dihydro-1H-inden-2-yl)methyl)thiophene-2-carboxylic acid] | 54 nM | 131 nM | 137 nM | 11 nM | > 10000 nM
O=C(O)c1ccc(CC2CCc3c(cccc3-c3cccc(C(F)(F)F)c3)C2=O)s1 (stereo not drawn) [Example 14, 5-((1-Oxo-5-(3-(trifluoromethyl)phenyl)-1,2,3,4-tetrahydronaphthalen-2-yl)methyl)thiophene-2-carboxylic acid] | 341 nM | 1390 nM | 1070 nM | 79 nM | –
Cc1cccc(-c2cccc3c2CC(Cc2ccc(C(=O)O)cc2)C3=O)c1 (stereo not drawn) [Example 12, 4-((1-Oxo-4-(m-tolyl)-2,3-dihydro-1H-inden-2-yl)methyl)benzoic acid] | 1170 nM | 191 nM | 610 nM | 217 nM | –
COc1cc(-c2cccc3c2CC(Cc2ccc(C(=O)O)cc2)C3=O)cc(C(F)(F)F)c1 (stereo not drawn) [Example 8, 4-((4-(3-Methoxy-5-(trifluoromethyl)phenyl)-1-oxo-2,3-dihydro-1H-inden-2-yl)methyl)benzoic acid] | 1050 nM | 21 nM | 889 nM | 11 nM | –
O=C(O)c1ccc(CC2Cc3c(cccc3-c3ccc(C(F)(F)F)cc3)C2=O)cc1 (stereo not drawn) [Example 6, 4-((1-Oxo-4-(4-(trifluoromethyl)phenyl)-2,3-dihydro-1H-inden-2-yl)methyl)benzoic acid] | > 10000 nM | 338 nM | 4450 nM | – | –
O=C(O)c1ccc(CC2Cc3c(cccc3-c3cccc(Cl)c3)C2=O)s1 (stereo not drawn) [Example 16, 5-((4-(3-Chlorophenyl)-1-oxo-2,3-dihydro-1H-inden-2-yl)methyl)thiophene-2-carboxylic acid] | 300 nM | 199 nM | 505 nM | 62 nM | –
O=C(O)c1csc(CC2Cc3c(cccc3-c3cccc(C(F)(F)F)c3)C2=O)c1 (stereo not drawn) [Example 18, 5-((1-Oxo-4-(3-(trifluoromethyl)phenyl)-2,3-dihydro-1H-inden-2-yl)methyl)thiophene-3-carboxylic acid] | 4970 nM | 96 nM | 5 nM | 179 nM | –
O=C(O)c1ccc(CC2Cc3c(cccc3-c3ccc4ccccc4c3)C2=O)cc1 (stereo not drawn) [Example 5, 4-((4-(Naphthalen-2-yl)-1-oxo-2,3-dihydro-1H-inden-2-yl)methyl)benzoic acid] | > 10000 nM | 61 nM | 1190 nM | 40 nM | –

Source: US9415027B2, “Therapeutic agents” (Allergan, Inc., priority 2013, dated 2016)
